Experimental findings from US11441029B1, “Packaging films, and methods of preparation thereof” (King Abdulaziz University, priority 2022, dated 2022) are described below.

In this test the test system is gram-positive and gram-negative bacteria. Description: Antimicrobial activity of films, bacteria not specified at the place. The format is cell-based. Here is the method:
Active cultures were prepared by inoculating freshly cultured bacteria or pure colony (24 hours (h)) into lysogeny broth (LB) broth, then incubated in a shaker for 24 h at 30° C. with 200 revolutions per minute (rpm). The optical density (OD) for each culture was set to 0.05, equivalent to 1-2×10^5 colony forming units/millilitre (CFU/mL) by adding LB broth. […] Thereafter, re-suspension was carried out for each sample using 4.6 mL of 0.85 wt. % sodium chloride. Serial dilution was conducted, and 100 microlitre (μL) for each dilution was transferred to LB agar plates. Then, those agar plates were allowed to undergo incubation for 24 h at 30° C. Gentamicin was used as a positive control, and pure PBS film were used as negative control for the microbial culture. […] The whole antimicrobial process was conducted in triplicate to obtain average values. The microbial population was calculated as log CFU per mL sample, and the actual number in each dilution was determined for dishes containing 30-300 colonies using Equation 1 as below: [formula] where C refers to total counts of bacteria in all retained dishes; V refers to volume used for sample dilution; n1 refers to number of retained dishes in first dilution; n2 refers to number of retained dishes in second dilution; D refers to dilution factor of first dilution.

Molecules are shown by their SMILES.

Turning to `[O-]n1ccccc1=S.[O-]n1ccccc1=S.[Zn+2]` [SAN, zinc, bis[1-(hydroxy-.kappa.O)-2(1H)-pyridinethionato-.kappa.S2]-,(T-4)-], the “antimicrobial activity (general statement)” value is “exhibited antimicrobial effects”.
